Source: patent US9487749B2 (priority 2009, dated 2016)

Legend:
Chlorella sorokiniana = assay: Algal growth with MSM by percent transmittance; type: cell-based
Procedure: Two species of Chlorella were examined for growth—Chlorella sorokiniana a freshwater species and Chlorella minutissima a marine species. […] Growth was measured on day 0, 1, 2, 3, 4, 5, 6, 7, 8, 9 and 10. […] The following media were purchased from UTEX Culture Collection of Algae: Enriched Salt Water Medium and Volvox Dextrose Medium.
The algae were grown for 48 hours in the appropriate medium. The initial suspension was enumerated for each alga and is referred to as the starting inoculums. Chlorella sorokiniana was at 381 million cells per milliliter and Chlorella minutissima was at 19 million cells per milliliter. One milliliter of the algal solution was placed into 9 mLs of medium and mixed by vortexing. […] The tube of algae and MSM were incubated at room temperature with exposure to sunlight. […] Each dilution of MSM for each organism was set up in and analyzed in triplicate for each time interval measured. The samples were measured by percent transmittance on a UV/VIS spectrophotometer at wavelength 750 nm. The medium stock was tested for percent transmittance background levels at every time interval were measured. The lower percent transmittance indicated a higher growth factor.

Lactobacillus rhamnosus = assay: Growth of Lactobacillus rhamnosus in MRS broth fortified with MSM; type: cell-based; settings: for Growth (colony forming units): 0.04% MSM in MRS broth, 0-72 hours
Procedure: Each organism (Lactobacillus rhamnosus, Lactobacillus acidophilus, and Bifidobacterium bifidum) was grown in MRS bacterial growth medium (broth) and plated on MRS agar at different time intervals. Results are expressed in colony forming units per milliliter (cfu/mL). […] All bacterial organisms were incubated at 35° C. +/−2° C. for the duration of the study. […] All preparations and plating were conducted at room temperature. […] Test samples were plated in triplicate at each test date and the averages are reported.

## CS(C)(=O)=O [MSM, Methylsulfonylmethane]
Chlorella sorokiniana; MSM 0.5, day 4, 750 nm
  percent transmittance: 19.0%
Chlorella sorokiniana; MSM 0.5, day 5, 750 nm
  percent transmittance: 12.4%
Chlorella sorokiniana; MSM 0.5, day 6, 750 nm
  percent transmittance: 12.5%
Chlorella sorokiniana; MSM 0.5, day 7, 750 nm
  percent transmittance: 11.9%
Chlorella sorokiniana; MSM 0.5, day 8, 750 nm
  percent transmittance: 12.2%
Chlorella sorokiniana; MSM 0.5, day 9, 750 nm
  percent transmittance: 7.5%
Chlorella sorokiniana; MSM 0.5, day 10, 750 nm
  percent transmittance: 6.4%
Chlorella sorokiniana; MSM 1, day 0, 750 nm
  percent transmittance: 48.7%
Chlorella sorokiniana; MSM 1, day 1, 750 nm
  percent transmittance: 42.5%
Chlorella sorokiniana; MSM 1, day 2, 750 nm
  percent transmittance: 37.5%
Chlorella sorokiniana; MSM 1, day 3, 750 nm
  percent transmittance: 37.5%
Chlorella sorokiniana; MSM 1, day 4, 750 nm
  percent transmittance: 17.3%
Chlorella sorokiniana; MSM 1, day 5, 750 nm
  percent transmittance: 13.5%
Chlorella sorokiniana; MSM 1, day 6, 750 nm
  percent transmittance: 13.0%
Chlorella sorokiniana; MSM 1, day 7, 750 nm
  percent transmittance: 12.5%
Chlorella sorokiniana; MSM 1, day 8, 750 nm
  percent transmittance: 12.4%
Chlorella sorokiniana; MSM 1, day 9, 750 nm
  percent transmittance: 7.8%
Chlorella sorokiniana; MSM 1, day 10, 750 nm
  percent transmittance: 6.6%
Chlorella sorokiniana; MSM 2.5, day 0, 750 nm
  percent transmittance: 40.6%
Chlorella sorokiniana; MSM 2.5, day 1, 750 nm
  percent transmittance: 43.1%
Chlorella sorokiniana; MSM 2.5, day 2, 750 nm
  percent transmittance: 44.9%
Chlorella sorokiniana; MSM 2.5, day 3, 750 nm
  percent transmittance: 43.8%
Chlorella sorokiniana; MSM 2.5, day 4, 750 nm
  percent transmittance: 26.1%
Chlorella sorokiniana; MSM 2.5, day 5, 750 nm
  percent transmittance: 10.3%
Chlorella sorokiniana; MSM 2.5, day 6, 750 nm
  percent transmittance: 10.9%
Chlorella sorokiniana; MSM 2.5, day 7, 750 nm
  percent transmittance: 11.0%
Chlorella sorokiniana; MSM 2.5, day 8, 750 nm
  percent transmittance: 11.2%
Chlorella sorokiniana; MSM 2.5, day 9, 750 nm
  percent transmittance: 8.4%
Chlorella sorokiniana; MSM 2.5, day 10, 750 nm
  percent transmittance: 6.0%
Chlorella sorokiniana; MSM 5, day 0, 750 nm
  percent transmittance: 35.6%
Chlorella sorokiniana; MSM 5, day 1, 750 nm
  percent transmittance: 31.2%
Chlorella sorokiniana; MSM 5, day 2, 750 nm
  percent transmittance: 27.4%
Chlorella sorokiniana; MSM 5, day 3, 750 nm
  percent transmittance: 21.4%
Chlorella sorokiniana; MSM 5, day 4, 750 nm
  percent transmittance: 18.2%
Chlorella sorokiniana; MSM 5, day 5, 750 nm
  percent transmittance: 15.7%
Chlorella sorokiniana; MSM 5, day 6, 750 nm
  percent transmittance: 15.9%
Chlorella sorokiniana; MSM 5, day 7, 750 nm
  percent transmittance: 16.3%
Chlorella sorokiniana; MSM 5, day 8, 750 nm
  percent transmittance: 17.0%
Chlorella sorokiniana; MSM 5, day 9, 750 nm
  percent transmittance: 13.7%
Chlorella sorokiniana; MSM 5, day 10, 750 nm
  percent transmittance: 12.8%
Chlorella sorokiniana; MSM 10, day 0, 750 nm
  percent transmittance: 31.2%
Chlorella sorokiniana; MSM 10, day 1, 750 nm
  percent transmittance: 31.3%
Chlorella sorokiniana; MSM 10, day 2, 750 nm
  percent transmittance: 29.7%
Chlorella sorokiniana; MSM 10, day 3, 750 nm
  percent transmittance: 28.4%
Chlorella sorokiniana; MSM 10, day 4, 750 nm
  percent transmittance: 29.0%
Chlorella sorokiniana; MSM 10, day 5, 750 nm
  percent transmittance: 28.7%
Chlorella sorokiniana; MSM 10, day 6, 750 nm
  percent transmittance: 27.1%
Chlorella sorokiniana; MSM 10, day 7, 750 nm
  percent transmittance: 27.6%
Chlorella sorokiniana; MSM 10, day 8, 750 nm
  percent transmittance: 27.1%
Chlorella sorokiniana; MSM 10, day 9, 750 nm
  percent transmittance: 76.4%
Chlorella sorokiniana; MSM 10, day 10, 750 nm
  percent transmittance: 93.8%
Chlorella sorokiniana; MSM 20, day 0, 750 nm
  percent transmittance: 19.3%
Chlorella sorokiniana; MSM 20, day 1, 750 nm
  percent transmittance: 21.9%
Chlorella sorokiniana; MSM 20, day 2, 750 nm
  percent transmittance: 24.1%
Chlorella sorokiniana; MSM 20, day 3, 750 nm
  percent transmittance: 28.1%
Chlorella sorokiniana; MSM 20, day 4, 750 nm
  percent transmittance: 31.4%
Chlorella sorokiniana; MSM 20, day 5, 750 nm
  percent transmittance: 33.6%
Chlorella sorokiniana; MSM 20, day 6, 750 nm
  percent transmittance: 36.8%
Chlorella sorokiniana; MSM 20, day 7, 750 nm
  percent transmittance: 40.6%
Chlorella sorokiniana; MSM 20, day 8, 750 nm
  percent transmittance: 40.8%
Chlorella sorokiniana; MSM 20, day 9, 750 nm
  percent transmittance: 84.8%
Chlorella sorokiniana; MSM 20, day 10, 750 nm
  percent transmittance: 96.7%
Lactobacillus rhamnosus; 0 hours of incubation
  Growth (colony forming units): 1.7 × 10^6 cfu/mL
Lactobacillus rhamnosus; 12 hours of incubation
  Growth (colony forming units): 2.1 × 10^7 cfu/mL
Lactobacillus rhamnosus; 24 hours of incubation
  Growth (colony forming units): 1.5 × 10^9 cfu/mL
Lactobacillus rhamnosus; 36 hours of incubation
  Growth (colony forming units): 1.8 × 10^9 cfu/mL
Lactobacillus rhamnosus; 48 hours of incubation
  Growth (colony forming units): 2.1 × 10^9 cfu/mL
Lactobacillus rhamnosus; 60 hours of incubation
  Growth (colony forming units): 2.6 × 10^9 cfu/mL
Lactobacillus rhamnosus; 0.2% MSM, first 12 hours
  recovery higher than the 0% control: 41%
Lactobacillus rhamnosus; 1% MSM, first 12 hours
  recovery higher than the 0% control: 47%
Lactobacillus rhamnosus; all MSM samples, first 12 hours
  recovery more than the 0% control: at least 12%
